Experimental data from US20230407243A1, “GENETIC PLATFORM TO INVESTIGATE THE FUNCTIONS OF BACTERIAL DRUG EFFLUX PUMPS” (priority 2022, published 2023).
Where two headings read alike, the source gives them in different places.

Tests used:
Format in all cases: cell-based, Escherichia coli
E. coli ΔtolC = assay: microbe, parasite or virus in culture; conditions: for MIC: Escherichia coli, 18 h, read-out: Minimum Inhibitory Concentration, ΔtolC; for Minimum inhibitory concentration (MIC), ΔtolC: Table 10, without pore, technical duplicate
Method in brief: (§1)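 LB o/n 37 °C → PBS pH 7.4, OD600 ~1.0 → 1/2000 in MHB II; 2-fold cmpd series, duplicate, DMSO ctrl; 18 h 37 °C, 900 rpm; OD600 post minus pre.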

E. coli EKO-35 = assay: microbe, parasite or virus in culture; conditions: for Fold change of MICs: EKO-35 compared to EKO-35 (reference); for MIC: Escherichia coli
Method in brief: as §1

[1] = tested on: wild-type E. coli K-12 str. BW25113; assay: microbe, parasite or virus in culture; conditions: Escherichia coli
Method in brief: as §1

EKO-35-Pore = assay: MIC susceptibility profiling, porinated strain; conditions: for Fold changes of MICs: EKO-35-Pore compared to EKO-35-Pore (reference); for MIC: Escherichia coli, technical duplicate
Method in brief: (§2)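 Strains carry the fhuA ΔC/Δ4L pore integrated between glmS and pstS under a constitutive promoter, with pore activity checked by vancomycin susceptibility. Overnight LB cultures were adjusted in PBS pH 7.4 to OD600 ~1.0 and diluted 1/2000 into MHB II. 2-fold compound titrations were read by OD600 after 18 h at 37 °C.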

EKO-35 araC::emrAB = assay: MIC susceptibility profiling, efflux platform; conditions: for Fold change of MICs: EKO-35 araC::emrAB compared to EKO-35
Method in brief: as §1

EKO-35 araC::macAB = assay: MIC susceptibility profiling, efflux platform; conditions: for Fold change of MICs: EKO-35 araC::macAB compared to EKO-35
Method in brief: as §1

EKO-35 araC::acrEF = assay: MIC susceptibility profiling, efflux platform; conditions: for Fold change of MICs: EKO-35 araC::acrEF compared to EKO-35; for MIC: Escherichia coli, Table 13A, non-porinated, technical duplicate, read-out: Minimum Inhibitory Concentration, EKO-35 araC::acrEF
Method in brief: as §1

[2] = tested on: EKO-35 araC::acrBD408A Pore; assay: MIC susceptibility profiling, porinated efflux platform; conditions: for Fold changes of MICs: EKO-35 araC::acrBD408A Pore compared to EKO-35-Pore
Method in brief: as §2

EKO-35 araC::mdtBC Pore = assay: as above; conditions: for Fold changes of MICs: EKO-35 araC::mdtBC Pore compared to EKO-35-Pore
Method in brief: as §2

EKO-35 araC::emrAB Pore = assay: as above; conditions: for Fold changes of MICs: EKO-35 araC::emrAB Pore compared to EKO-35-Pore
Method in brief: as §2

EKO-35 araC::acrD Pore = assay: as above; conditions: for Fold changes of MICs: EKO-35 araC::acrD Pore compared to EKO-35-Pore
Method in brief: as §2

EKO-35 araC::mdtEF Pore = assay: as above; conditions: for Fold changes of MICs: EKO-35 araC::mdtEF Pore compared to EKO-35-Pore
Method in brief: as §2

EKO-35 araC::mexCD Pore = assay: as above; conditions: for Fold changes of MICs: EKO-35 araC::mexCD Pore compared to EKO-35-Pore
Method in brief: as §2

EKO-35 araC::acrEF Pore = assay: as above; conditions: for Fold changes of MICs: EKO-35 araC::acrEF Pore compared to EKO-35-Pore
Method in brief: as §2

EKO-35 araC::macAB Pore = assay: as above; conditions: for Fold changes of MICs: EKO-35 araC::macAB Pore compared to EKO-35-Pore
Method in brief: as §2

EKO-35 araC::emrKY Pore = assay: as above; conditions: for Fold changes of MICs: EKO-35 araC::emrKY Pore compared to EKO-35-Pore
Method in brief: as §2

EKO-35 araC::acrB Pore = assay: as above; conditions: for Fold changes of MICs: EKO-35 araC::acr-B Pore compared to EKO-35-Pore; for MIC: Escherichia coli, Table 14A, porinated, technical duplicate, read-out: Minimum inhibitory concentration, EKO-35 araC::acrB Pore
Method in brief: as §2

ΔtolC-Pore = assay: microbe, parasite or virus in culture; conditions: for MIC: Escherichia coli, 18 h, read-out: Minimum inhibitory concentration, ΔtolC-Pore; for Minimum inhibitory concentration (MIC), Pore ΔtolC: Table 10, with pore, technical duplicate
Method in brief: as §2

wild-type (WT) K-12-Pore = assay: microbe, parasite or virus in culture; conditions: Escherichia coli
Method in brief: as §2

SMILES | MIC (E. coli ΔtolC) [µg/mL] | Minimum inhibitory concentration (MIC), ΔtolC (E. coli ΔtolC) [µg/mL] | Fold change of MICs (E. coli EKO-35) [fold] | Fold changes of MICs (EKO-35-Pore) [fold] | Fold change of MICs (EKO-35 araC::emrAB) [fold] | Fold change of MICs (EKO-35 araC::macAB) [fold] | Fold change of MICs (EKO-35 araC::acrEF) [fold] | MIC (EKO-35 araC::acrEF) [µg/mL] | Fold changes of MICs [2] [fold] | Fold changes of MICs (EKO-35 araC::mdtBC Pore) [fold] | Fold changes of MICs (EKO-35 araC::emrAB Pore) [fold] | Fold changes of MICs (EKO-35 araC::acrD Pore) [fold] | Fold changes of MICs (EKO-35 araC::mdtEF Pore) [fold] | Fold changes of MICs (EKO-35 araC::mexCD Pore) [fold] | Fold changes of MICs (EKO-35 araC::acrEF Pore) [fold] | Fold changes of MICs (EKO-35 araC::macAB Pore) [fold] | Fold changes of MICs (EKO-35 araC::emrKY Pore) [fold] | Fold changes of MICs (EKO-35 araC::acrB Pore) [fold] | MIC (EKO-35 araC::acrB Pore) [µg/mL] | MIC (ΔtolC-Pore) [µg/mL] | also measured
CN(C)[C@@H]1C(O)=C(C(N)=O)C(=O)[C@@]2(O)C(O)=C3C(=O)c4c(O)cccc4[C@@](C)(O)[C@H]3C[C@@H]12 [tetracycline] | 0.391 | 0.391 | 1 | 1 | 1 | 1 | 1 | 0.195 | 1 | 1 | 1 | 1 | 1 | 1 | 1 | 1 | 1 | 2 | 0.391 | 0.391 | MIC (E. coli EKO-35; EKO35, Table 10, without pore, technical duplicate, read-out: Minimum inhibitory concentration (MIC), EKO-35): 0.195 µg/mL; MIC (E. coli EKO-35; EKO35, Table 13A, non-porinated, technical duplicate, read-out: Minimum Inhibitory Concentration, EKO-35): 0.195 µg/mL; MIC ([1]; BW25113, Table 10, without pore, technical duplicate, read-out: Minimum inhibitory concentration (MIC), K-12): 1.56 µg/mL; MIC ([1]; BW25113, Table 13A, non-porinated, technical duplicate, read-out: Minimum Inhibitory Concentration, K-12): 1.56 µg/mL; MIC (EKO-35-Pore; Table 10, with pore, read-out: Minimum inhibitory concentration (MIC), Pore EKO-35): 0.195 µg/mL; MIC (EKO-35-Pore; Table 14A, porinated, read-out: Minimum inhibitory concentration, EKO-35-Pore): 0.195 µg/mL; MIC (EKO-35 araC::emrAB; Escherichia coli, Table 13B, non-porinated, technical duplicate, read-out: Minimum Inhibitory Concentration, EKO-35 araC::emrAB): 0.195 µg/mL; MIC (EKO-35 araC::macAB; Escherichia coli, Table 13B, non-porinated, technical duplicate, read-out: Minimum Inhibitory Concentration, EKO-35 araC::macAB): 0.195 µg/mL; MIC ([2]; Escherichia coli, EKO-35 araC::acrBD408A Pore, technical duplicate, read-out: Minimum inhibitory concentration): 0.195 µg/mL; MIC (EKO-35 araC::mdtBC Pore; Escherichia coli, EKO-35 araC::mdtBC Pore, technical duplicate, read-out: Minimum inhibitory concentration): 0.195 µg/mL; MIC (EKO-35 araC::emrAB Pore; Escherichia coli, EKO-35 araC::emrAB Pore, technical duplicate, read-out: Minimum inhibitory concentration): 0.195 µg/mL; MIC (EKO-35 araC::acrD Pore; Escherichia coli, Table 14A, porinated, technical duplicate, read-out: Minimum inhibitory concentration, EKO-35 araC::acrD Pore): 0.195 µg/mL; MIC (EKO-35 araC::mdtEF Pore; Escherichia coli, Table 14A, porinated, technical duplicate, read-out: Minimum inhibitory concentration, EKO-35 araC::mdtEF Pore): 0.195 µg/mL; MIC (EKO-35 araC::mexCD Pore; Escherichia coli, EKO-35 araC::mexCD Pore, technical duplicate, read-out: Minimum inhibitory concentration): 0.195 µg/mL; MIC (EKO-35 araC::acrEF Pore; Escherichia coli, Table 14A, porinated, technical duplicate, read-out: Minimum inhibitory concentration, EKO-35 araC::acrEF Pore): 0.195 µg/mL; MIC (EKO-35 araC::macAB Pore; Escherichia coli, EKO-35 araC::macAB Pore, technical duplicate, read-out: Minimum inhibitory concentration): 0.195 µg/mL; MIC (EKO-35 araC::emrKY Pore; Escherichia coli, EKO-35 araC::emrKY Pore, technical duplicate, read-out: Minimum inhibitory concentration): 0.195 µg/mL; Minimum inhibitory concentration (MIC), Pore ΔtolC (ΔtolC-Pore): 0.391 µg/mL; MIC (wild-type (WT) K-12-Pore; Table 10, with pore, technical duplicate, read-out: Minimum inhibitory concentration (MIC), Pore K-12): 0.781 µg/mL; MIC (wild-type (WT) K-12-Pore; Table 14A, porinated, technical duplicate, read-out: Minimum inhibitory concentration, K-12 (WT)-Pore): 0.781 µg/mL
COc1cc(Cc2cnc(N)nc2N)cc(OC)c1OC [trimethoprim] | 0.098 | 0.098 | 1 | 1 | 1 | 1 | 4 | 0.781 | 1 | 1 | 2 | 1 | 2 | 1 | 1 | 1 | 2 | 4 | 0.781 | 0.049 | MIC (E. coli EKO-35; EKO35, read-out: Minimum Inhibitory Concentration, EKO-35): 0.195 µg/mL; MIC (E. coli EKO-35; EKO35, read-out: Minimum inhibitory concentration (MIC), EKO-35): 0.195 µg/mL; MIC ([1]; BW25113, read-out: Minimum Inhibitory Concentration, K-12): 0.391 µg/mL; MIC ([1]; BW25113, read-out: Minimum inhibitory concentration (MIC), K-12): 0.391 µg/mL; efflux pump-mediated resistance vs EKO-35-Pore (EKO-35 araC::acrEF Pore; AcrEF with the pore): impacted the ability of AcrEF to confer resistance; Minimum inhibitory concentration (MIC), Pore ΔtolC (ΔtolC-Pore): 0.049 µg/mL; MIC (wild-type (WT) K-12-Pore; read-out: Minimum inhibitory concentration (MIC), Pore K-12): 0.391 µg/mL; MIC (wild-type (WT) K-12-Pore; read-out: Minimum inhibitory concentration, K-12 (WT)-Pore): 0.391 µg/mL
